Where “and” joins values, the source holds several entries; their conditions need not be identical. Equal values may be shown once. Toxic doses and inconclusive results are not listed.
Test system: P388 leukemia ip, CD2F1 mice, survival T/C
Assay: NCI In Vivo Anticancer Drug Screen. Data for tumor model P388 Leukemia (intraperitoneal) in CD2F1 (CDF1) mice
Conditions: endpoint: median survival time, higher = longer survival
Method in brief: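 Mice carrying the transplanted tumor received test compound or vehicle. Survival was recorded in each group, and the value is the treated-group measurement divided by that of the vehicle-treated control group.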

[1] = dose: 50.0 mg/kg/injection, schedule: Q01DX005 (ip), vehicle: saline
[2] = dose: 100.0 mg/kg/injection, schedule: Q01DX005 (ip), vehicle: saline

In the case of `CC(=O)OCCC/C(=C/c1cc2ccccc2c2ccccc12)[N+](=O)[O-]`, the T/C (dose: 100.0 mg/kg/injection, schedule: Q04DX003 (ip), vehicle: Klucel (hydroxypropylcellulose) (HPC)) is reported as 104 % of control, the T/C (dose: 200.0 mg/kg/injection, schedule: Q04DX003 (ip), vehicle: Klucel (hydroxypropylcellulose) (HPC)) is reported as 109 % of control and the T/C (dose: 400.0 mg/kg/injection, schedule: Q04DX003 (ip), vehicle: Klucel (hydroxypropylcellulose) (HPC)) is reported as 109 % of control.

`CN(CC(O)C(O)C(O)C(O)CN(C)N=O)N=O` (centres undefined) was tested, and the T/C (dose: 100.0 mg/kg/injection, schedule: Q01DX001 (ip), vehicle: saline) was 115 % of control, the T/C (dose: 200.0 mg/kg/injection, schedule: Q01DX001 (ip), vehicle: saline) was 100 % of control and the T/C (dose: 400.0 mg/kg/injection, schedule: Q01DX001 (ip), vehicle: saline) was 110 % of control.

For `CCCCOC(=O)c1ccccc1OP(=O)(N(C)C)N(C)C`, the T/C [1] was 107 % of control and the T/C [2] was 103 % of control.

For `CN(C)c1ccc(C=Nc2ccc3ccc4cccc5ccc2c3c45)cc1`, the T/C (dose: 50.0 mg/kg/injection, schedule: Q01DX009 (ip), vehicle: Klucel (hydroxypropylcellulose) (HPC)) was 101 % of control, the T/C (dose: 100.0 mg/kg/injection, schedule: Q01DX009 (ip), vehicle: Klucel (hydroxypropylcellulose) (HPC)) was 102 % of control and the T/C (dose: 200.0 mg/kg/injection, schedule: Q01DX009 (ip), vehicle: Klucel (hydroxypropylcellulose) (HPC)) was 102 % of control.

In the case of `C=C1C(=O)OC2C=CCCCC12` (centres undefined), the T/C (dose: 50.0 mg/kg/injection, schedule: Q01DX001 (ip), vehicle: saline with Tween-80) is reported as 105 % of control and the T/C (dose: 100.0 mg/kg/injection, schedule: Q01DX001 (ip), vehicle: saline with Tween-80) is reported as 102 % of control.

With `Nc1ncnc2c1ncn2CCOCC(O)CO` (centres undefined) the T/C (dose: 60.0 mg/kg/injection, schedule: Q01DX005 (ip), vehicle: saline with Tween-80) was 100 % of control, the T/C (dose: 120.0 mg/kg/injection, schedule: Q01DX005 (ip), vehicle: saline with Tween-80) was 95 % of control and the T/C (dose: 240.0 mg/kg/injection, schedule: Q01DX005 (ip), vehicle: saline with Tween-80) was 93 % of control.

`CC(C)CC(NC(=O)C(Cc1ccccc1)NC(=O)CNC(=O)CNC(=O)C(N)Cc1ccc(O)cc1)C(=O)O` (centres undefined) was tested, and the T/C (dose: 12.5 mg/kg/injection, schedule: Q01DX005 (ip), vehicle: water) was 110 % of control, the T/C (dose: 25.0 mg/kg/injection, schedule: Q01DX005 (ip), vehicle: water) was 103 % of control and the T/C (dose: 50.0 mg/kg/injection, schedule: Q01DX005 (ip), vehicle: water) was 95 % of control. For the same compound, the T/C (dose: 100.0 mg/kg/injection, schedule: Q01DX005 (ip), vehicle: water) was 98 % of control and the T/C (dose: 200.0 mg/kg/injection, schedule: Q01DX005 (ip), vehicle: water) was 100 % of control.

With `CCC[CH2][Sn]([CH2]CCC)[O][Sn]([Cl])([CH2]CCC)[CH2]CCC` the T/C (dose: 0.79 mg/kg/injection, schedule: Q01DX009 (ip), vehicle: saline) was 100 % of control, the T/C (dose: 1.56 mg/kg/injection, schedule: Q01DX009 (ip), vehicle: saline with Tween-80) was 100 % of control and the T/C (dose: 1.56 mg/kg/injection, schedule: Q01DX009 (ip), vehicle: saline) was 100 % of control. The T/C (dose: 3.12 mg/kg/injection, schedule: Q01DX009 (ip), vehicle: saline with Tween-80) was 101 % of control and 113 % of control, the T/C (dose: 3.12 mg/kg/injection, schedule: Q01DX009 (ip), vehicle: saline) was 97 % of control and the T/C (dose: 6.25 mg/kg/injection, schedule: Q01DX009 (ip), vehicle: saline with Tween-80) was 100 % of control. For the same compound, the T/C (dose: 6.25 mg/kg/injection, schedule: Q01DX009 (ip), vehicle: saline) was 88 % of control.

For `CN1N=Nc2ccccc2NC1=O`, the T/C (dose: 50.0 mg/kg/injection, schedule: Q01DX005 (ip), vehicle: saline with Tween-80) was 96 % of control, the T/C (dose: 100.0 mg/kg/injection, schedule: Q01DX005 (ip), vehicle: saline with Tween-80) was 99 % of control and the T/C (dose: 200.0 mg/kg/injection, schedule: Q01DX005 (ip), vehicle: saline with Tween-80) was 91 % of control.

For `CC1OC(=O)C(C)C1=O` (centres undefined), the T/C [1] was 104 % of control, the T/C [2] was 92 % of control and the T/C (dose: 200.0 mg/kg/injection, schedule: Q01DX005 (ip), vehicle: saline) was 113 % of control.

With `CC(=O)N[C@@H](Cc1ccc(N(CCCl)CCCl)cc1)C(=O)ON1C(=O)CCC1=O` the T/C (dose: 5.8 mg/kg/injection, schedule: Q01DX009 (ip), vehicle: saline) was 168 % of control, the T/C (dose: 5.8 mg/kg/injection, schedule: Q03HX008 (ip), vehicle: saline) was 160 % of control and the T/C (dose: 11.6 mg/kg/injection, schedule: Q01DX009 (ip), vehicle: saline) was 190 % of control. For the same compound, the T/C (dose: 11.6 mg/kg/injection, schedule: Q03HX008 (ip), vehicle: saline) was 195 % of control and the T/C (dose: 23.2 mg/kg/injection, schedule: Q03HX008 (ip), vehicle: saline) was 260 % of control.

From PubChem BioAssay AID330 (DTP/NCI, 2004)
